Source: PubChem BioAssay (NCI)
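Results reflect a 48-hour exposure of cells in 96-well plates to compound at five concentrations. GI50 marks 50% less growth. TGI denotes the concentration required for complete inhibition of growth.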

Assays:
Test in all cases: NCI-60 cell line screen, 48 h
[1] = test system: 786-0 renal
[2] = test system: A498 renal
[3] = test system: A549 NSCLC
[4] = test system: ACHN renal
[5] = test system: CAKI-1 renal
[6] = test system: CCRF-CEM leukemia
[7] = test system: COLO 205 colon
[8] = test system: DU-145 prostate
[9] = test system: EKVX NSCLC
[10] = test system: HCC-2998 colon
[11] = test system: HCT-116 colon
[12] = test system: HCT-15 colon
[13] = test system: HL-60(TB) leukemia
[14] = test system: HOP-62 NSCLC
[15] = test system: HOP-92 NSCLC
[16] = test system: HS 578T breast
[17] = test system: IGROV1 ovarian
[18] = test system: K-562 leukemia
[19] = test system: KM12 colon
[20] = test system: LOX IMVI melanoma
[21] = test system: M14 melanoma
[22] = test system: MALME-3M melanoma
[23] = test system: MCF7 breast
[24] = test system: MDA-MB-231 breast
[25] = test system: MDA-MB-435
[26] = test system: MDA-MB-468 breast
[27] = test system: MOLT-4 leukemia
[28] = test system: NCI-H226 lung
[29] = test system: NCI-H23 lung
[30] = test system: OVCAR-3 ovarian
[31] = test system: OVCAR-4 ovarian
[32] = test system: OVCAR-5 ovarian
[33] = test system: OVCAR-8 ovarian
[34] = test system: PC-3 prostate
[35] = test system: RPMI-8226 leukemia
[36] = test system: RXF 393 renal
[37] = test system: SF-268 CNS
[38] = test system: SF-295 CNS
[39] = test system: SF-539 CNS
[40] = test system: SK-MEL-2 melanoma
[41] = test system: SK-MEL-28 melanoma
[42] = test system: SK-MEL-5 melanoma
[43] = test system: SK-OV-3 ovarian
[44] = test system: SN12C renal
[45] = test system: SNB-19 CNS
[46] = test system: SNB-75 CNS
[47] = test system: SR leukemia
[48] = test system: SW-620 colon
[49] = test system: T-47D breast
[50] = test system: TK-10 renal
[51] = test system: U251 CNS
[52] = test system: UACC-257 melanoma
[53] = test system: UACC-62 melanoma
[54] = test system: UO-31 renal

O=C1Nc2cc(Cl)ccc2/C1=C/c1cccc(OCc2ccc(Br)cc2F)c1
GI50 [1]: 3.79 µM
TGI [1]: > 100 µM
GI50 [2]: 7.92 µM
TGI [2]: 57.2 µM
GI50 [3]: 4.66 µM
TGI [3]: > 100 µM
GI50 [4]: 3.94 µM
TGI [4]: > 100 µM
GI50 [5]: 2.54 µM
TGI [5]: 13.9 µM
GI50 [6]: 2.91 µM
TGI [6]: 10.9 µM
GI50 [7]: 3.42 µM
TGI [7]: > 100 µM
GI50 [8]: 5.97 µM
TGI [8]: > 100 µM
GI50 [9]: 3.23 µM
TGI [9]: > 100 µM
GI50 [10]: 3.71 µM
TGI [10]: > 100 µM
GI50 [11]: 3.1 µM
TGI [11]: > 100 µM
GI50 [12]: 2.67 µM
TGI [12]: 12.3 µM
GI50 [13]: 1.85 µM
TGI [13]: 4.53 µM
GI50 [14]: 4.02 µM
TGI [14]: 34.2 µM
GI50 [15]: 2.33 µM
TGI [15]: 12.4 µM
GI50 [16]: 2.17 µM
TGI [16]: 5.82 µM
GI50 [17]: 2.71 µM
TGI [17]: 97.7 µM
GI50 [18]: 2.67 µM
TGI [18]: 8.56 µM
GI50 [19]: 3.65 µM
TGI [19]: 41 µM
GI50 [20]: 2.49 µM
TGI [20]: 8.24 µM
GI50 [21]: 2.17 µM
TGI [21]: 5.71 µM
GI50 [22]: 4.15 µM
TGI [22]: 20.9 µM
GI50 [23]: 0.642 µM
TGI [23]: 27.8 µM
GI50 [24]: 2.63 µM
TGI [24]: 12.5 µM
GI50 [25]: 1.82 µM
TGI [25]: 3.41 µM
GI50 [26]: 2.43 µM
TGI [26]: 8.88 µM
GI50 [27]: 2.92 µM
TGI [27]: 9.41 µM
GI50 [28]: 3.09 µM
TGI [28]: > 100 µM
GI50 [29]: 3.88 µM
TGI [29]: > 100 µM
GI50 [30]: 2.53 µM
TGI [30]: 7.82 µM
GI50 [31]: 3.55 µM
TGI [31]: 47.2 µM
GI50 [32]: 8.48 µM
TGI [32]: > 100 µM
GI50 [33]: 4.32 µM
TGI [33]: > 100 µM
GI50 [34]: 3.89 µM
TGI [34]: > 100 µM
GI50 [35]: 2.35 µM
TGI [35]: 12.6 µM
GI50 [36]: 4.47 µM
TGI [36]: 50.4 µM
GI50 [37]: 3.33 µM
TGI [37]: > 100 µM
GI50 [38]: 3.16 µM
TGI [38]: 14.9 µM
GI50 [39]: 1.99 µM
TGI [39]: 4.34 µM
GI50 [40]: 2.16 µM
TGI [40]: 5.35 µM
GI50 [41]: 4.47 µM
TGI [41]: 24.1 µM
GI50 [42]: 3.03 µM
TGI [42]: 10.9 µM
GI50 [43]: 14.6 µM
TGI [43]: > 100 µM
GI50 [44]: 4.11 µM
TGI [44]: > 100 µM
GI50 [45]: 3.9 µM
TGI [45]: > 100 µM
GI50 [46]: 1.83 µM
TGI [46]: 5.11 µM
GI50 [47]: 2.15 µM
TGI [47]: 5.07 µM
GI50 [48]: 2.89 µM
TGI [48]: > 100 µM
GI50 [49]: 3.67 µM
TGI [49]: > 100 µM
GI50 [50]: 14.3 µM
TGI [50]: > 100 µM
GI50 [51]: 3.79 µM
TGI [51]: > 100 µM
GI50 [52]: 8.5 µM
TGI [52]: > 100 µM
GI50 [53]: 2.49 µM
TGI [53]: 8.8 µM
GI50 [54]: 2.05 µM
TGI [54]: > 100 µM
